Experimental data published in patent US20260078120A1, “SUBSTITUTED PYRIDOPYRIMIDINONES” (MIRATI THERAPEUTICS, INC., priority 2022, published 2026).

Key:
[1] = tested on: T47D (PI3Kα H1047R mutant) cells; test: CellTiter-Glo 2.0 luminescent cell viability assay, 72 hours, T47D cells; type: cell-based; conditions: Homo sapiens, T47D, 72 h, T47D (PI3Kα H1047R mutant) cells, CellTiter-Glo, approximately 72 hours; read-out: T47D (H1047R mutant) Viability IC50
How it was run: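 Cells seeded at 1000 per well overnight were dosed with a 10-concentration, 1:4 series starting at 10 µM and incubated ~72 h at 37° C. Viability was read by CellTiter-Glo 2.0 luminescence after 30 min at room temperature. IC50 came from four-parameter fits of percent vehicle control.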

[2] = tested on: SKBR3 (PI3Kα wild type) cells; test: CellTiter-Glo 2.0 luminescent cell viability assay, 72 hours, SKBR3 cells; type: cell-based; conditions: Homo sapiens, SK-BR-3, 72 h, SKBR3 (PI3Kα wild type) cells, CellTiter-Glo, approximately 72 hours; read-out: SKBR3 (WT) Viability IC50
How it was run: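 Viability measured via CTG luminescence following roughly 72 hours of compound exposure at 37° C. Dosing used a 10 um starting concentration diluted 1:4 over 10 points; percent-of-vehicle data fitted with a variable-slope four-parameter model for IC50.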

SMILES | IC50 [1] [µM] | IC50 [2] [µM]
Cc1cc([C@@H](C)Nc2ccccc2C(=O)O)c2nc(O[C@@H]3CCOC3)c(C#N)c(=O)n2c1 [Example 11-247, 2-(((R)-1-(3-cyano-7-methyl-4-oxo-2-(((R)-tetrahydrofuran-3-yl)oxy)-4H-pyrido[1,2-a]pyrimidin-9-yl)ethyl)amino)benzoic acid] | 1.54 | > 10
Cc1cc(CNc2ccccc2C(=O)O)c2nc(N3CCCCC3)cc(=O)n2c1 [Example 11-412] | > 10 | > 10
Cc1cc([C@@H](C)Nc2ccccc2C(=O)O)c2nc(N3C[C@H]4C[C@@H]3CC4(F)F)c(C#N)c(=O)n2c1 [Example 11-230, 2-(((R)-1-(3-cyano-2-((1R,4R)-5,5-difluoro-2-azabicyclo[2.2.1]heptan-2-yl)-7-methyl-4-oxo-4H-pyrido[1,2-a]pyrimidin-9-yl)ethyl)amino)benzoic acid] | 0.201 | > 10
Cc1cc([C@@H](C)Nc2ccc(F)cc2C(=O)O)c2nc(N3CCC(F)(F)CC3)c(C#N)c(=O)n2c1 [Example 11-90, (R)-2-((1-(3-cyano-2-(4,4-difluoropiperidin-1-yl)-7-methyl-4-oxo-4H-pyrido[1,2-a]pyrimidin-9-yl)ethyl)amino)-5-fluorobenzoic acid] | 0.306 | > 10
Cc1cc(C(C)Nc2cccnc2C(=O)O)c2nc(N3CCCCC3)c(C)c(=O)n2c1 (stereo not drawn) [Example 11-356, 3-((1-(3,7-dimethyl-4-oxo-2-(piperidin-1-yl)-4H-pyrido[1,2-a]pyrimidin-9-yl)ethyl)amino)picolinic acid] | 0.532 | 1.2
C=C(C#N)CNc1nc2c([C@@H](C)Nc3ccccc3C(=O)O)cc(C)cn2c(=O)c1C#N [Example 11-108, (R)-2-((1-(3-cyano-2-((2-cyanoallyl)amino)-7-methyl-4-oxo-4H-pyrido[1,2-a]pyrimidin-9-yl)ethyl)amino)benzoic acid] | 3.69 | > 10
Cc1cc(C(C)Nc2ccccc2C(=O)O)c2nc(SC3CCOC3)cc(=O)n2c1 (stereo not drawn) [Example 11-370, 2-((1-(7-methyl-4-oxo-2-((tetrahydrofuran-3-yl)thio)-4H-pyrido[1,2-a]pyrimidin-9-yl)ethyl)amino)benzoic acid] | > 10 | > 10
CO[C@H]1CN(c2nc3c([C@@H](C)Nc4ccccc4C(=O)O)cc(C)cn3c(=O)c2C#N)CC1(F)F [Example 11-116, 2-(((R)-1-(3-cyano-2-((S)-3,3-difluoro-4-methoxypyrrolidin-1-yl)-7-methyl-4-oxo-4H-pyrido[1,2-a]pyrimidin-9-yl)ethyl)amino)benzoic acid] | 0.156 | > 10
Cc1cc([C@@H](C)Nc2ccccc2C(=O)O)c2nc(N3CCN(CC(F)F)CC3)c(C#N)c(=O)n2c1 [Example 11-42, (R)-2-((1-(3-cyano-2-(4-(2,2-difluoroethyl)piperazin-1-yl)-7-methyl-4-oxo-4H-pyrido[1,2-a]pyrimidin-9-yl)ethyl)amino)benzoic acid] | 0.172 | > 10
Cc1cc([C@@H](C)Nc2ccccc2C(=O)O)c2nc(N3CCN(c4nc(C)cs4)CC3)c(C)c(=O)n2c1 [Example 11-446, (R)-2-((1-(3,7-dimethyl-2-(4-(4-methylthiazol-2-yl)piperazin-1-yl)-4-oxo-4H-pyrido[1,2-a]pyrimidin-9-yl)ethyl)amino)benzoic acid] | 0.3 | > 10
Cc1cc([C@@H](C)Nc2ccccc2C(=O)O)c2nc(O[C@@H]3CCOC3)c(C)c(=O)n2c1 [Example 11-245, 2-(((R)-1-(3,7-dimethyl-4-oxo-2-(((R)-tetrahydrofuran-3-yl)oxy)-4H-pyrido[1,2-a]pyrimidin-9-yl)ethyl)amino)benzoic acid] | 0.166 | > 10
Cc1cc([C@@H](C)Nc2ccccc2C(=O)O)c2nc(N3CCN(C(=O)CC4CC4)CC3)c(C)c(=O)n2c1 [Example 10-6, (R)-2-((1-(2-(4-(2-cyclopropylacetyl)piperazin-1-yl)-3,7-dimethyl-4-oxo-4H-pyrido[1,2-a]pyrimidin-9-yl)ethyl)amino)benzoic acid] | 0.015 | > 10
Cc1cc([C@@H](C)Nc2ccccc2C(=O)O)c2nc(NCC(C)C)c(C#N)c(=O)n2c1 [Example 11-308, (R)-2-((1-(3-cyano-2-(isobutylamino)-7-methyl-4-oxo-4H-pyrido[1,2-a]pyrimidin-9-yl)ethyl)amino)benzoic acid] | 0.121 | > 10
Cc1cc([C@@H](C)Nc2ccccc2C(=O)O)c2nc(-c3cnn(-c4ccc(C#N)cc4)c3)c(C)c(=O)n2c1 [Example 11-233, (R)-2-((1-(2-(1-(4-cyanophenyl)-1H-pyrazol-4-yl)-3,7-dimethyl-4-oxo-4H-pyrido[1,2-a]pyrimidin-9-yl)ethyl)amino)benzoic acid] | 0.212 | > 10
Cc1cc([C@@H](C)Nc2ccccc2C(=O)O)c2nc(C#Cc3ccc(C#N)cc3)c(C)c(=O)n2c1 [Example 11-253, (R)-2-((1-(2-((4-cyanophenyl)ethynyl)-3,7-dimethyl-4-oxo-4H-pyrido[1,2-a]pyrimidin-9-yl)ethyl)amino)benzoic acid] | 0.492 | > 10
Cc1cc([C@@H](C)Nc2ccccc2C(=O)O)c2nc(N3CCN(c4cccc(C#N)c4)C[C@@H]3C)c(C)c(=O)n2c1 [Example 11-86, 2-(((R)-1-(2-((S)-4-(3-cyanophenyl)-2-methylpiperazin-1-yl)-3,7-dimethyl-4-oxo-4H-pyrido[1,2-a]pyrimidin-9-yl)ethyl)amino)benzoic acid] | 0.146 | > 10

Second part, the compound after the results:

IC50 [1] [µM] | IC50 [2] [µM] | SMILES
1.06 | > 10 | Cc1cc(C(C)Nc2ccccc2C(=O)O)c2nc(-c3ccccc3)c(C)c(=O)n2c1 (stereo not drawn) [Example 11-403, 2-((1-(3,7-dimethyl-4-oxo-2-phenyl-4H-pyrido[1,2-a]pyrimidin-9-yl)ethyl)amino)benzoic acid]
0.198 | > 10 | Cc1cc([C@@H](C)Nc2ccccc2C(=O)O)c2nc(N3CC[C@@H]3CF)c(C)c(=O)n2c1 [Example 11-95, 2-(((R)-1-(2-((R)-2-(fluoromethyl)azetidin-1-yl)-3,7-dimethyl-4-oxo-4H-pyrido[1,2-a]pyrimidin-9-yl)ethyl)amino)benzoic acid]
0.0566 | > 10 | Cc1cc([C@@H](C)Nc2ccccc2C(=O)O)c2nc(N3Cc4ccc(F)cc4C3)c(C)c(=O)n2c1 [Example 10-134, (R)-2-((1-(2-(5-fluoroisoindolin-2-yl)-3,7-dimethyl-4-oxo-4H-pyrido[1,2-a]pyrimidin-9-yl)ethyl)amino)benzoic acid]
0.117 | > 10 | Cc1cc([C@@H](C)Nc2ccccc2C(=O)O)c2nc(N3CC4(CCC4(F)F)C3)c(C)c(=O)n2c1 [Example 11-201, (R)-2-((1-(2-(5,5-difluoro-2-azaspiro[3.3]heptan-2-yl)-3,7-dimethyl-4-oxo-4H-pyrido[1,2-a]pyrimidin-9-yl)ethyl)amino)benzoic acid]
0.0432 | > 10 | Cc1cc([C@@H](C)Nc2ccccc2C(=O)O)c2nc(N3Cc4ccc(C(F)F)cc4C3)c(C)c(=O)n2c1 [Example 10-128, (R)-2-((1-(2-(5-(difluoromethyl)isoindolin-2-yl)-3,7-dimethyl-4-oxo-4H-pyrido[1,2-a]pyrimidin-9-yl)ethyl)amino)benzoic acid]
3.01 | > 10 | Cc1cc([C@@H](C)Nc2ccccc2C(=O)O)c2nc(N3CCn4cc(C(F)(F)F)nc4C3)c(C)c(=O)n2c1 [Example 11-433, (R)-2-((1-(3,7-dimethyl-4-oxo-2-(2-(trifluoromethyl)-5,6-dihydroimidazo[1,2-a]pyrazin-7(8H)-yl)-4H-pyrido[1,2-a]pyrimidin-9-yl)ethyl)amino)benzoic acid]
0.156 | > 10 | Cc1cc([C@@H](C)Nc2ccccc2C(=O)O)c2nc(N3Cc4nc(C)sc4C3)c(C)c(=O)n2c1 [Example 11-15, (R)-2-((1-(3,7-dimethyl-2-(2-methyl-4,6-dihydro-5H-pyrrolo[3,4-d]thiazol-5-yl)-4-oxo-4H-pyrido[1,2-a]pyrimidin-9-yl)ethyl)amino)benzoic acid]
0.233 | > 10 | Cc1cc([C@@H](C)Nc2ccccc2C(=O)O)c2nc(N3CCC(c4ccccc4)C3)c(C)c(=O)n2c1 (stereo partly drawn) [Example 11-14, 2-(((1R)-1-(3,7-dimethyl-4-oxo-2-(3-phenylpyrrolidin-1-yl)-4H-pyrido[1,2-a]pyrimidin-9-yl)ethyl)amino)benzoic acid]
0.796 | > 10 | Cc1ccc2c(c1)CN(c1nc3c([C@@H](C)Nc4ccccc4C(=O)O)cc(C)cn3c(=O)c1C)C2 [Example 11-17, (R)-2-((1-(3,7-dimethyl-2-(5-methylisoindolin-2-yl)-4-oxo-4H-pyrido[1,2-a]pyrimidin-9-yl)ethyl)amino)benzoic acid]
> 10 | > 10 | Cc1cc(C(C)Nc2ccncc2C(=O)O)c2nc(N3Cc4ccccc4C3)c(C)c(=O)n2c1 (stereo not drawn) [Example 11-350, 4-((1-(2-(isoindolin-2-yl)-3,7-dimethyl-4-oxo-4H-pyrido[1,2-a]pyrimidin-9-yl)ethyl)amino)nicotinic acid]
0.389 | > 10 | Cc1cc([C@@H](C)Nc2ccccc2C(=O)O)c2nc(N3CC(c4ccccn4)C3)c(C)c(=O)n2c1 [Example 11-16, (R)-2-((1-(3,7-dimethyl-4-oxo-2-(3-(pyridin-2-yl)azetidin-1-yl)-4H-pyrido[1,2-a]pyrimidin-9-yl)ethyl)amino)benzoic acid]
